Reference: patent publication US8298581B2, “Matrix compositions for controlled delivery of drug substances” (Egalet A/S, priority 2003, dated 2012)
Converted amounts (≈) assume the structure as drawn.

Assay: Solubility of active ingredient in water
Type: physicochemical
Conditions: 23° C., water at pH 7.6

A solubility of 4300 µg/mL (≈ 20.1 mM) was found for NCC(CC(=O)O)c1ccc(Cl)cc1 (stereo not shown) [active ingredient, Baclofen] in this work.
